Literature values in paper PMC4512239 (Clinical cancer research : an official journal of the …, 2015).

Details: allosteric m-TOR inhibitors; cited from earlier work

half-life, ≥ 24 h:
CO[C@H]1C[C@@H]2CC[C@@H](C)[C@@](O)(O2)C(=O)C(=O)N2CCCC[C@H]2C(=O)O[C@H]([C@H](C)C[C@@H]2CC[C@@H](OC(=O)C(C)(CO)CO)[C@H](OC)C2)CC(=O)[C@H](C)/C=C(\C)[C@@H](O)[C@@H](OC)C(=O)[C@H](C)C[C@H](C)/C=C/C=C/C=C/1C [temsirolimus], CO[C@H]1C[C@@H]2CC[C@@H](C)[C@@](O)(O2)C(=O)C(=O)N2CCCC[C@H]2C(=O)O[C@H]([C@H](C)C[C@@H]2CC[C@@H](OCCO)[C@H](OC)C2)CC(=O)[C@H](C)/C=C(\C)[C@@H](O)[C@@H](OC)C(=O)[C@H](C)C[C@H](C)/C=C/C=C/C=C/1C [everolimus], CO[C@H]1C[C@@H]2CC[C@@H](C)[C@@](O)(O2)C(=O)C(=O)N2CCCC[C@H]2C(=O)O[C@H]([C@H](C)C[C@@H]2CC[C@@H](OP(C)(C)=O)[C@H](OC)C2)CC(=O)[C@H](C)/C=C(\C)[C@@H](O)[C@@H](OC)C(=O)[C@H](C)C[C@H](C)/C=C/C=C/C=C/1C [ridaforolimus]
